From PubChem BioAssay (NCI) come the findings set out here.

Holding throughout (assay): NCI tumour cell line growth inhibition, 48 h
The subject of test [1] is DLD-1 colon.
Test [2] has as its system DMS 114 small cell lung.
The subject of test [3] is HOP-18 NSCLC.
The test system of test [4] is KM20L2 colon.
Test [5] deals with M19-MEL melanoma.
Test [6] has as its system SNB-78 CNS.
Test [7] deals with XF 498 CNS.
The subject of test [8] is DMS 273 small cell lung.
For test [9], the system named is RXF-631 renal.

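48-hour exposure; five concentrations; linearly interpolated endpoints. TGI is the concentration that stops growth completely.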

Take `O=C(COC(=O)c1cccc2c(=O)c3ccccc3[nH]c12)Nc1ccc(Cl)cc1`: the TGI in test [1], in [2], in test [3], in [4], in test [5] and in test [6] was > 100 µM throughout. The compound also had a TGI in [7] of 97.3 µM.
`COc1ccc(NC(=O)c2oc3cc(O)ccc3c(=O)c2C)c([N+](=O)[O-])c1`: the TGI in [1], in test [2], in test [8], in test [3], in test [4] and in test [5] was > 100 µM throughout. Further, the TGI in test [6] and in test [7] was > 100 µM each time.
Consider `COC(=O)C(=O)C(C(C)=O)C(=O)NCc1ccccc1` (configuration not stated), for which the TGI in test [1], in test [2], in [8], in [3], in [4] and in [5] was > 100 µM each time. Further, the TGI in test [6] and in [7] was > 100 µM each time.
In the case of `Cc1cc(N(CCC#N)CCC#N)ccc1/C=C(\NC(=O)/C=C/c1ccccc1)C(=O)Nc1ccc(Cl)cc1`, the TGI in test [1] was > 100 µM; in test [2], > 100 µM; in test [8], > 100 µM; in [3], > 100 µM; in test [4], > 79.6 µM; in [5], > 38.1 µM. The TGI in [9], in test [6] and in test [7] was > 100 µM throughout.
`CCCCCN(CCCCC)C(=O)[C@H](CCC(=O)O)NC(=O)c1cc2ccccc2[nH]1`: the TGI in [1], in test [2], in test [8], in test [4], in test [5] and in test [6] was > 100 µM each time. The TGI in [7] was > 100 µM.
On to `O=C(Nc1ccc([N+](=O)[O-])cc1[N+](=O)[O-])C(=O)C(C(=O)c1ccc(Cl)c(Cl)c1)C1OC(=O)c2ccccc21` (configuration not stated), for which the TGI in test [1] was 42.4 µM; in test [2] it was 59.5 µM; in test [8] it was > 100 µM; in test [4] it was 89.7 µM; in test [5], 79.4 µM; in test [6] it was 93.3 µM.
Turning to `O=C1NC2C3CC(OCc4ccccc4)(OCc4ccccc4)C2OC3O1` (configuration not stated), the TGI in test [1], in test [2], in test [8], in test [3], in test [5] and in [7] was > 50 µM throughout.
Consider `NCCCC(N=Cc1nc(-c2ccccc2)oc1O)C(=O)O` (configuration not stated), for which the TGI in test [1], in [2], in test [8], in [4], in test [5] and in [6] was > 100 µM each time. The TGI in test [7] is > 100 µM.
Turning to `CCOC(=O)C(=O)Nc1c(C)cccc1C(C)(C)C`, the TGI in test [2], in test [8], in [3], in test [4], in test [5] and in test [9] was > 100 µM throughout. Further, the TGI in [6] and in [7] was > 100 µM each time.
With `C=CC(=O)Nc1ccccc1CC(c1c[nH]c2ccccc12)c1c[nH]c2ccccc12`, the TGI was 30.1 µM in test [2]; 32.1 µM in test [8]; 30 µM in [5]; 32.3 µM in test [9]; 43.8 µM in [6]; 42.3 µM in [7].
Turning to `Cc1cc(Cl)ccc1N=C1NC(=O)C(CC(=O)Nc2cccc(C)c2C)S1` (configuration not stated), the TGI was > 100 µM in test [1]; 66.6 µM in [2]; 81 µM in test [8]; 87.2 µM in [4]; > 100 µM in test [5]; 84.3 µM in [9]. Besides, the figures for the TGI in [6] and in test [7] were 79.7 µM and 39 µM, respectively.
Regarding `CC1(C2COC(=O)C2)SCCCS1` (configuration not stated), the TGI in test [1], in test [2], in [8], in test [3], in test [4] and in test [5] was > 100 µM throughout. Moreover, the TGI in [7] was > 100 µM.
`CCOC(=O)C1=C(O)C(=O)c2ccoc2C1=O`: the TGI in test [2], in test [8], in test [3], in [4], in test [5] and in test [6] was > 100 µM each time. Moreover, the TGI in [7] is > 100 µM.
In the case of `Cc1ccc(C2[C@H]3C(=O)N(c4ccc(Cc5ccc(N6C(=O)[C@@H]7ON(c8ccccc8)C(c8ccc(C)cc8)[C@@H]7C6=O)cc5)cc4)C(=O)[C@H]3ON2c2ccccc2)cc1` (some centres not stated), the TGI in test [1], in test [2], in test [8], in [3], in test [4] and in test [5] was > 100 µM each time. In test [7], the TGI is > 100 µM.
For `N#CC(C(=N/O)/C(=N\O)C(C#N)c1ccccc1)c1ccccc1` (configuration not stated), the TGI in test [1], in test [2], in [3], in [4], in test [5] and in [9] was > 100 µM each time. Further, the TGI in test [6] and in test [7] was > 100 µM each time.
In the case of `Cc1ccc(C)c(NC(=O)C(=O)C2C(=O)N(c3ccccc3)N=C2N)c1` (configuration not stated), the TGI in [1], in test [8], in test [3], in [4], in test [5] and in test [9] was > 100 µM each time. Also, the TGI in [6] and in test [7] was > 100 µM each time.
As for `COc1ccc(/C=N/N=C(\N)NO)cc1F`, the TGI in test [1] is > 100 µM; in [8] it was 84.4 µM; in test [3], 90.5 µM; in [4], > 100 µM; in [5] it was 72.3 µM; in test [9], > 100 µM. For the same compound, the TGI in test [6] is > 100 µM; in test [7] it was 96 µM.
For the compound `CCCCCCCCCCCCCCCCCCOCC(C[N+]1(C)CCC(O)CC1)OCC` (configuration not stated), the TGI worked out at 44.8 µM in [1]; 12.6 µM in test [2]; 4.91 µM in [8]; 14.4 µM in [5]; 21.1 µM in test [9]; 14.7 µM in [6]. In test [7], this compound displayed a TGI of 29 µM.
